Assay results: the NIST ThermoML archive (doi:10.1021/je0302250)

Key:
[1] = 101.3 kPa, Liquid, Capillary tube (Ostwald / Ubbelohde) method
[2] = xn = mol fraction of the nth substance listed; conditions: 101.3 kPa, Liquid, Capillary tube (Ostwald / Ubbelohde) method

CN(CCO)CCO [N-methyldiethanolamine]
[1]
Conditions | viscosity [mPa·s]
313.15 K | 34.62
333.15 K | 14.38
353.15 K | 7.082
363.15 K | 5.277

O [water] + CN(CCO)CCO
[2], x2 = 0
Conditions | viscosity [mPa·s]
313.15 K | 0.656
333.15 K | 0.476
353.15 K | 0.358
363.15 K | 0.305

CN(CCO)CCO [N-methyldiethanolamine] + O
viscosity [mPa·s], [2]
Conditions | x1 = 0.06 | x1 = 0.09 | x1 = 0.129 | x1 = 0.257 | x1 = 0.372 | x1 = 0.583 | x1 = 0.743 | x1 = 1
313.15 K | 1.94 | 3.115 | 5.108 | 15.18 | 24.78 | 34.79 | 35.92 | 34.62
333.15 K | 1.202 | 1.709 | 2.703 | 6.7 | 10.24 | 13.74 | 14.49 | 14.38
353.15 K | 0.813 | 1.127 | 1.63 | 3.472 | 4.873 | 6.569 | 7.084 | 7.082
363.15 K | 0.687 | 0.871 | 1.205 | 2.606 | 3.611 | 4.749 | 5.278 | 5.277
